From patent US20020197294A1, “PYRONE COMPOUNDS AND THERE USE” (SUMITOMO CHEMICAL COMPANY, LIMITED, priority 2001, published 2002)

Key:
Format in all cases: in vivo
[1] = test system: houseflies (Musca domestics); assay: Housefly topical application test (Test Example 3); conditions: 0.5 μl of 30 g/l acetone solution at back thoracic region (about 15 μg/one housefly), female houseflies, after 24 hours, three replicate
Protocol: A solution (30 g/l) for each of the present compound (A) and the reference compound was prepared by diluting with acetone.
The acetone solution (0.5 μl) was applied to 10 female houseflies (Musca domestics) at the back thoracic region (active ingredient: about 15 μg/one housefly) by a microsyringe and the houseflies were left with water and feed in a plastic cup. After 24 hours, the mortality (%) was examined (three replicate).

[2] = test system: German cockroaches (Blattella germanica); assay: German cockroach filter paper test (Test Example 1); conditions: 144 h, 0.7 ml of 500 ppm aqueous dilution on filter paper, male German cockroaches, after six days
Protocol: (§1) Filter paper of 5.5 cm in diameter was laid in the bottom of a polyethylene cup (diameter: 5.5 cm). After 0.7 ml of a 500 ppm aqueous dilution obtained by diluting the formulation of the test compound prepared according to the formulation example 1 was dropped on the filter paper, 30 mg of sucrose was scattered. Two male German cockroaches (Blattella germanica) were left in the polyethylene cup with a cover. After six days, the mortality of the German cockroaches was examined.

[3] = test system: houseflies (Musca domestics); assay: Housefly filter paper test (Test Example 2); conditions: 0.7 ml of 500 ppm aqueous dilution on filter paper, female houseflies, after one day
Protocol: as §1, with “Ten female houseflies (Musca domestics)” for “Two male German cockroaches (Blattella germanica)”, “the” for “the polyethylene”, “one day,” for “six days,”, “houseflies” for “German cockroaches”

SMILES | Mortality (%) [1] | mortality at 500 ppm [2] | mortality of the houseflies [3]
CCCC(=O)c1c(O)cc(C)oc1=O [The Reference compound, reference compound] | 3.3% |  | 
Cc1cc(O)c(C(=O)CCC(F)(F)F)c(=O)o1 [the present compound (A), 4-hydroxy-6-methyl-3-(4,4,4-trifluorobutyryl)-2-pyrone] | 100% | 100% | 100%
Cc1cc(O)c(C(=O)CC(C)C(F)(F)F)c(=O)o1 (centres unmarked) [the present compound (B), 4-hydroxy-6-methyl-3-(3-trifluoromethylbutyryl)-2-pyrone] |  | 100% | 100%
Cc1cc(O)c(C(=O)CC(C(F)(F)F)C(F)(F)F)c(=O)o1 [the present compound (C), 4-hydroxy-6-methyl-3-(3-trifluoromethyl-4,4,4-trifluorobutyryl) -2-pyrone] |  | 100% | 100%
